Experimental findings from paper PMC6471485, “Selective Inhibitors of a Human Prolyl Hydroxylase (OGFOD1) Involved in Ribosomal Decoding” (Chemistry (Weinheim an Der Bergstrasse, Germany), 2019) are described below.

Some results are limits rather than exact numbers.

Test [1] deals with T1, PHD2181-426 (Homo sapiens, UniProt Q9GZT9).
T1 construct: 181-426 (1 µM) was
As to the kind of experiment: PHD2 inhibition assay: hydroxylation of HIF-1a CODD peptide by MALDI-TOF MS. The test is classed as biochemical. The protocol:
OGFOD1 inhibition assays were performed by determining the extent of hydroxylation of a 20mer fragment of human ribosomal protein S23 (RPS23) containing residues 51-70 (H2N- […]
-CONH2) by matrix-assisted laser desorption/ionization time-of-flight mass spectrometry (MALDI-TOF MS) using a Waters Micromass MALDI micro MX mass spectrometer and MassLynx 4.1, as previously described.[7,8] The optimized hydroxylation assay involved incubation of OGFOD1 (1 µM) with inhibitor (1 % v/v in DMSO) in the presence of (NH4)2Fe(SO4)2 (50 µM), the disodium salt of 2-oxoglutarate (25 µM), […]
OGFOD1 was pre-incubated with inhibitor for 5 min before initiation of the reaction via the addition of the other reagents. Reactions were quenched with formic acid (1 % v/v) after 15 min. Samples were prepared for MALDI using α-cyano-4-hydrocinnamic acid (CHCA; prepared in 50 % acetonitrile) as a matrix. Dose-responses were assessed in 8-point triplicates, normalized to a no enzyme negative control and a no inhibitor positive control. Non-linear regression analysis was performed using Prism (GraphPad).
PHD2181-426 inhibition assays were performed by determining the extent of hydroxylation of a HIF-1a CODD peptide substrate (HIF-1a residues 556-574), using MALDI-TOF MS as described with OGFOD1.[8] The optimized hydroxylation assay involved incubation of PHD2181-426 (1 µM) with inhibitor (1 % v/v in DMSO) in the presence of (NH4)2Fe(SO4)2 (10 µM), the disodium salt of 2-oxoglutarate (60 µM), sodium ascorbate (100 µM), and HIF-1aCODD 556-574 (50 µM) in HEPES (50 mM, pH 7.5) at 37 °C for 15 min. The FIH assay employed MALDI-TOF MS detection of hydroxylation. Reactions consisted of FIH […]
(50 nM), ankyrin peptide (50 µM; […]), the disodium salt of 2- […]
oxoglutarate (100 µM), sodium ascorbate (100 µM), and (NH4)2Fe(SO4)2 (10 µM), and […]

Test [2] addresses T2, MINA53 (Homo sapiens, UniProt Q8IUF8).
T2 construct: 1-464 and NO66116-641 were cloned into pFB-LIC-Bse; His (N); made in house; host or cells: Sf9 insect cells
As to the kind of experiment: MINA53 IC50 determination, RapidFire MS. In kind it is biochemical. The protocol:
reactions were quenched after 4 min. KDM4A inhibition was tested as described previously using a formaldehyde dehydrogenase (FDH) assay.[9] JARID1B and JARID1C inhibition was tested as described previously using reported AlphaScreen-based assays.[10] MINA531-464 and NO66116-641 were cloned into pFB-LIC-Bse, and the N-terminal His-tagged proteins were produced in Sf9 insect cells. The MINA53 peptide substrate Rpl27a […]
(Gly31 – Pro49 […]) and the NO66 peptide substrate Rpl8
(Asn205 – Thr224 […]) were synthesized by Peptide Protein
Research Ltd (Fareham, Hampshire, UK) to >95% purity. IC50 determinations were performed in 384-well polypropylene plates (Greiner Bio One, Cat Number 781096), and compound dispenses were performed using an ECHO 550 acoustic dispenser (Labcyte, Sunnyvale, CA). […]
RapidFire integrator software (Agilent). Percent conversion was calculated in Excel, and IC50 curves were generated using Prism v. […]
Assays consisted of enzyme (2 µM), inhibitor (200 µM), MnCl2 (50 µM), and SYPRO Orange (1:5000 dilution), all prepared in 50 mM HEPES, pH 7.5. […] An Opticon thermal cycler (MJ Research Inc) was used to control temperature and measure fluorescence. […]
CPMG Binding Experiments: Binding of the inhibitors to the proteins was monitored using Carr-Purcell-Meiboom-Gill (CPMG)-edited 1H spectra. […]

T1 sequence (Q9GZT9 181-426 limits assumed): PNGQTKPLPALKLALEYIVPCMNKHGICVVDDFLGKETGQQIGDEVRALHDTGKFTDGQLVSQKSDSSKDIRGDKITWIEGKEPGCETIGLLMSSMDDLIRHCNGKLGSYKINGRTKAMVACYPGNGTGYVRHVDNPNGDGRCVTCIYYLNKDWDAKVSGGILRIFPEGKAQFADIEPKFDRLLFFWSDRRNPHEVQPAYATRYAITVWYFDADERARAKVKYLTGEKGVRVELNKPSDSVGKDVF
T2 sequence (Q8IUF8 1-464 limits assumed): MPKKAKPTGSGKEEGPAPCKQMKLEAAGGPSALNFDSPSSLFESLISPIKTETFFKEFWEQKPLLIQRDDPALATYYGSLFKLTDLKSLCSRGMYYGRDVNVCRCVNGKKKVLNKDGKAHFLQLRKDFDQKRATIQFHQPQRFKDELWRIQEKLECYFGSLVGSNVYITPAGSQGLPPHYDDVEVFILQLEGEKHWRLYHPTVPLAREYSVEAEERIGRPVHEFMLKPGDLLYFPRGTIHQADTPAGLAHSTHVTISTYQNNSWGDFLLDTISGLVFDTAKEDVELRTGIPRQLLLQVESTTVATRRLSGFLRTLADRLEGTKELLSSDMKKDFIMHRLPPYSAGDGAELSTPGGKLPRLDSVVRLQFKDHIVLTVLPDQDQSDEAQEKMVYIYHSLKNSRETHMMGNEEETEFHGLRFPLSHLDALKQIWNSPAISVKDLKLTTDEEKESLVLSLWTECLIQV

As to `Cn1c(O)c(C(=O)CCc2cccs2)c(=O)n(C)c1=O` [compound 42], the half-maximal inhibitory concentration (IC50) in test [1] and in test [2] was greater than 100 µM in each case.

For `Cn1c(O)c(C(=O)CCc2ccccc2)c(=O)n(C)c1=O` [compound 26], the IC50 in test [1] and in test [2] was greater than 100 µM each time. Further, the “inhibition of PHD2 hydroxylation activity, in words” value in test [1] (inhibitor 100 µM, PHD2181-426 1 µM (Figures S2, S8)) was “Lack of inhibition”.

By IC50 is commonly meant the concentration that inhibits the measured activity by half. A low value points to inhibition by little substance.
